Assays:
[1] = target: T1, human GR (Homo sapiens, UniProt P04150); assay: Trans-Activation Modulation of Glucocorticoid Receptor (GRAMMER), MMTV-LUC reporter, agonist mode; type: cell-based; parameters: endogenous in cells; conditions: for Emax: A549, A549 cells, maximum activity, read-out: Transactivation A549 Cells GRAMMER Emax; for EC50: A549 cells, inflection point, read-out: Transactivation A549 Cells GRAMMER IP
T1 sequence (P04150 1-777): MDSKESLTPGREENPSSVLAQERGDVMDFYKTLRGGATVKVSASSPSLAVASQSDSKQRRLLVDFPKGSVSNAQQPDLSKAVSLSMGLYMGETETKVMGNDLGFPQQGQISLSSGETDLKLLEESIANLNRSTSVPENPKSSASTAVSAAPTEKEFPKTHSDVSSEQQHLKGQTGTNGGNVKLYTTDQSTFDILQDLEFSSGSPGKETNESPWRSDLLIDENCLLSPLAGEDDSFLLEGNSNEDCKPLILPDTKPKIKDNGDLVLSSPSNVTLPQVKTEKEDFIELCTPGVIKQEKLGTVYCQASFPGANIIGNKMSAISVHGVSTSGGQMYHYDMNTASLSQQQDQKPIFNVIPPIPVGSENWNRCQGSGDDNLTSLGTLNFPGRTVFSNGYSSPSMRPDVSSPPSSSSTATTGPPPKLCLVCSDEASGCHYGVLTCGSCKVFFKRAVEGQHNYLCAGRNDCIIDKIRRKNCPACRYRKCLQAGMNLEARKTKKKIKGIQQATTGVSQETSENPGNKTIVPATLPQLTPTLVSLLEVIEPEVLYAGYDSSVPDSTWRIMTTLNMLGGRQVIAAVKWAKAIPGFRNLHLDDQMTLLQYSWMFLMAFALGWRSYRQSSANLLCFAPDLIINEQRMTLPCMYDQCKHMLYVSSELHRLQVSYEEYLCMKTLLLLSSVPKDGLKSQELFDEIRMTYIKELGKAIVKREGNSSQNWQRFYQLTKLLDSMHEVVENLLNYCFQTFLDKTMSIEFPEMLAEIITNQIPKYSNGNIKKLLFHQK
Summary of the method: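 Readout is luciferase from a modified MMTV LTR promoter after 24 h compound exposure alongside 10 nM dexamethasone (100% activity reference), DMSO ≤1%.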

[2] = target: T1, human GR; assay: Transrepression Assay (GITAR), TNFα-β-lactamase reporter in U937 cells; type: cell-based; parameters: U937 cells contain an endogenous glucocorticoid receptor (GR); endogenous in cells; host or cells: U937 cells stably transfected with the TNF-alpha promoter/beta-lactamase reporter; conditions: for GITAR > GRAMM % SEP: GITAR Emax minus GRAMMER Emax; for EC50: U937 cells, inflection point, read-out: Transrepression U937 Cells GITAR IP
Summary of the method: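 U937 cells stably carrying a TNF-α promoter–β-lactamase reporter, with endogenous GR, are preincubated with compound 30–45 min at 37 °C, then stimulated with PMA (5 ng/ml final) and LPS (100 ng/ml final) overnight (~18 hr). β-Lactamase is read with CCF2-AM substrate; repression by 100 nM dexamethasone defines 100%.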

[3] = U-937, U937 cells, maximum activity, read-out: Transrepression U937 Cells GITAR Emax
[4] = U-937, activity repressed by 100 nM dexamethasone alone set as 100%, read-out: maximal activity in the transrepression (GITAR) assay

Row | Emax [1] | EC50 [1] | GITAR > GRAMM % SEP [2] | EC50 [2] | Emax [2, 3] | Emax [2, 4] | SMILES
1 | 1.3% | 5000 nM | 32.5% | 2340 nM | 33.8% | > 5% | C[C@]12Cc3cnn(-c4ccc(F)cc4)c3C=C1CC[C@@H]2CN(CC#N)S(=O)(=O)c1ccc(Oc2cccc(Cl)c2C#N)cc1 [Example 38, 4-(3-chloro-2-cyanophenoxy)-N-(cyanomethyl)-N-{[(4αR,5S)-1-(4-fluorophenyl)-4α-methyl-1,4,4α,5,6,7-hexahydrocyclopenta[f]indazol-5-yl]methyl}benzenesulfonamide]
2 | 35.8% | 509 nM | 27.7% | 697 nM | 63.5% | > 5% | COC(=O)c1ccccc1S(=O)(=O)N(C[C@H]1CCC2=Cc3c(cnn3-c3ccc(F)cc3)C[C@@]21C)C[C@@H](C)O [Example 186, methyl 2-({{[(4αR,5S)-1-(4-fluorophenyl)-4α-methyl-1,4,4α,5,6,7-hexahydrocyclopenta[f]indazol-5-yl]methyl}[(2R)-2-hydroxypropyl]amino}sulfonyl)benzoate]
3 | 5.8% | 939 nM | 10.2% | 25 nM | 16% | > 5% | C[C@]12Cc3cnn(-c4ccc(F)cc4)c3C=C1CC[C@@H]2CN(CC#N)S(=O)(=O)c1cccc(Cl)c1Cl [Example 26, 2,3-dichloro-N-(cyanomethyl)-N-{[(4αR,5S)-1-(4-fluorophenyl)-4α-methyl-1,4,4α,5,6,7-hexahydrocyclopenta[f]indazol-5-yl]methyl}benzenesulfonamide]
4 | 47.7% | 549 nM | 35.7% | 337 nM | 83.4% | > 5% | C[C@]12Cc3cnn(-c4ccc(F)cc4)c3C=C1CC[C@@H]2CN(CC#N)S(=O)(=O)c1ccccc1C#N [Example 55]
5 | 20.7% | 833 nM | 34.0% | 679 nM | 54.8% | > 5% | Cc1ccc(S(=O)(=O)N(CC#N)C[C@H]2CCC3=Cc4c(cnn4-c4ccc(F)cc4)C[C@@]32C)s1 [Example 31, N-(cyanomethyl)-N-{[(4αR,5S)-1-(4-fluorophenyl}-4α-methyl-1,4,4α,5,6,7-hexahydrocyclopenta[f]indazol-5-yl]methyl}-5-methylthiophene-2-sulfonamide]
6 | 35.8% | 357 nM | 35.6% | 392 nM | 71.5% | > 5% | COC(=O)c1ccccc1S(=O)(=O)N(C[C@H]1CCC2=Cc3c(cnn3-c3ccc(F)cc3)C[C@@]21C)C[C@H](C)O [Example 187, methyl 2-({{[(4αR,5S)-1-(4-fluorophenyl)-4α-methyl-1,4,4α,5,6,7-hexahydrocyclopenta[f]indazol-5-yl]methyl}[(2S)-2-hydroxypropyl]amino}sulfonyl)benzoate]
7 | 67.3% | 169 nM | 12.9% | 177 nM | 80.2% | > 5% | CN(C[C@H]1CCC2=Cc3c(cnn3-c3ccc(F)cc3)C[C@@]21C)S(=O)(=O)CC(F)(F)F [Example 177, 2,2,2-trifluoro-N-{[(4αR,5S)-1-(4-fluorophenyl)-4α-methyl-1,4,4α,5,6,7-hexahydrocyclopenta[f]indazol-5-yl]methyl}-N-methylethanesulfonamide]
8 | 68.1% | 910 nM | 1.6% | 373 nM | 69.7% | > 5% | C[C@]12Cc3cnn(-c4ccc(F)cc4)c3C=C1CC[C@@H]2CN(CC#N)S(=O)(=O)c1ccc(F)c(Cl)c1 [Example 20, 3-chloro-N-(cyanomethyl)-4-fluoro-N-{[(4αR,5S)-1-(4-fluorophenyl)-4α-methyl-1,4,4α,5,6,7-hexahydrocyclopenta[f]indazol-5-yl]methyl}benzenesulfonamide]
9 | 65.3% | 152 nM | 15.7% | 189 nM | 81% | > 5% | COC(=O)c1ccccc1S(=O)(=O)N(CCc1ccccc1F)C[C@H]1CCC2=Cc3c(cnn3-c3ccc(F)cc3)C[C@@]21C [Example 189, methyl 2-[([2-(2-fluorophenyl)ethyl]{[(4αR,5S)-1-(4-fluorophenyl)-4α-methyl-1,4,4α,5,6,7-hexahydrocyclopenta[f]indazol-5-yl]methyl}amino)sulfonyl]benzoate]
10 | 50.9% | 805 nM | 36.1% | 643 nM | 86.9% | > 5% | Cc1oncc1S(=O)(=O)N(CCO)C[C@H]1CCC2=Cc3c(cnn3-c3ccc(F)cc3)C[C@@]21C [Example 56, N-{[(4αR,5S)-1-(4-fluorophenyl)-4α-methyl-1,4,4α,5,6,7-hexahydrocyclopenta[f]indazol-5-yl]methyl}-N-(2-hydroxyethyl)-5-methylisoxazole-4-sulfonamide]
11 | 8.3% | 82.9 nM | 7.8% | 305 nM | 16.1% | > 5% | C[C@]12Cc3cnn(-c4ccc(F)cc4)c3C=C1CC[C@@H]2CN(CC1CC1)S(=O)(=O)/C=C/c1ccccc1 [Example 13, (E)-N-(cyclopropylmethyl)-N-{[(4αR,5S)-1-(4-fluorophenyl)-4α-methyl-1,4,4α,5,6,7-hexahydrocyclopenta[f]indazol-5-yl]methyl}-2-phenylethylenesulfonamide]
12 | 83.3% | 433 nM | 3.5% | 186 nM | 86.8% | > 5% | C[C@]12Cc3cnn(-c4ccc(F)cc4)c3C=C1CC[C@@H]2CN(CC#N)S(=O)(=O)c1ccc(F)cc1F [Example 51, N-(cyanomethyl)-2,4-difluoro-N-{[(4αR,5S)-1-(4-fluorophenyl)-4α-methyl-1,4,4α,5,6,7-hexahydrocyclopenta[f]indazol-5-yl]methyl}benzenesulfonamide]
13 | 14.1% | 955 nM | 8.9% | 922 nM | 23% | > 5% | Cc1ccccc1S(=O)(=O)N(CC#N)C[C@H]1CCC2=Cc3c(cnn3-c3ccc(F)cc3)C[C@@]21C [Example 49, N-(cyanomethyl)-N-{[(4αR,5S)-1-(4-fluorophenyl)-4α-methyl-1,4,4α,5,6,7-hexahydrocyclopenta[f]indazol-5-yl]methyl}-2-methylbenzenesulfonamide]
14 | 41.3% | 437 nM | 39.6% | 538 nM | 80.9% | > 5% | C[C@]12Cc3cnn(-c4ccc(F)cc4)c3C=C1CC[C@@H]2CN(CCO)S(=O)(=O)c1ccc(F)c(F)c1 [Example 59]
15 | 4.3% | 170 nM | 23.2% | 2910 nM | 27.5% | > 5% | C[C@]12Cc3cnn(-c4ccc(F)cc4)c3C=C1CC[C@@H]2CN(Cc1ccccc1F)S(=O)(=O)c1cccc(C(N)=O)c1 [Example 192, 3-[((2-fluorobenzyl){[(4αR,5S)-1-(4-fluorophenyl)-4α-methyl-1,4,4α,5,6,7-hexahydrocyclopenta[f]indazol-5-yl]methyl}amino)sulfonyl]benzamide]
16 | 27.6% | 292 nM | 31.4% | 258 nM | 59% | > 5% | C[C@]12Cc3cnn(-c4ccc(F)cc4)c3C=C1CC[C@@H]2CN(CC1CC1)S(=O)(=O)c1ccc(F)c(Cl)c1 [Example 15, 3-chloro-N-(cyclopropylmethyl)-4-fluoro-N-{[(4αR,5S)-1-(4-fluorophenyl)-4α-methyl-1,4,4α,5,6,7-hexahydrocyclopenta[f]indazol-5-yl]methyl}benzenesulfonamide]
